Several values for one entry are separate records, joined by “and”; a condition that tells them apart may be missing. Identical values can stand only once.
Assays:
[1] = tested on: PC-3 prostate cancer cell line; experiment: SRB assay cell viability, PC-3 prostate cancer cell line; type: cell-based, human; settings: Homo sapiens, PC-3 prostate cancer cell line, Table II prints no unit, μM printed, read-out: SRB assay: 50% inhibition of cancer cell proliferation of sample concentration (IC50) of PC-3 prostate cancer cell line
HL-60, TB = experiment: NCI one-dose screening, leukemia HL-60, TB; type: cell-based, human; settings: 10 μM
OVCAR-8 = experiment: NCI one-dose screening, ovarian cancer OVCAR-8; type: cell-based, human; settings: 10 μM
HOP-62 = experiment: NCI one-dose screening, non-small cell lung cancer HOP-62; type: cell-based, human; settings: 10 μM
SK-MEL-28 = experiment: NCI one-dose screening, melanoma SK-MEL-28; type: cell-based, human; settings: 10 μM
BT-549 = experiment: NCI one-dose screening, breast cancer BT-549; type: cell-based, human; settings: 10 μM
T-47D = experiment: NCI one-dose screening, breast cancer T-47D; type: cell-based, human; settings: 10 μM
NCI-H522 = experiment: NCI one-dose screening, non-small cell lung cancer NCI-H522; type: cell-based, human; settings: 10 μM
PRMI-8226 cell line = experiment: NCI one-dose screening, leukemia PRMI-8226; type: cell-based, human; settings: 10 μM
NCI-H322M = experiment: NCI one-dose screening, non-small cell lung cancer NCI-H322M; type: cell-based, human; settings: 10 μM; Non-small cell lung cancer
human tumor cell lines = experiment: NCI one-dose screening, Mean / Delta / Range of growth percent over all tested cell lines; type: cell-based; settings: 10 μM
SNB-19 = experiment: NCI one-dose screening, CNS cancer SNB-19; type: cell-based, human; settings: 10 μM
MDA, -MB-435 = experiment: NCI one-dose screening, breast cancer MDA, -MB-435; type: cell-based, human; settings: 10 μM; listed under Melanoma
U251 = experiment: NCI one-dose screening, CNS cancer U251; type: cell-based, human; settings: 10 μM
COLO 205 = experiment: NCI one-dose screening, colon cancer COLO 205; type: cell-based, human; settings: 10 μM
RXF, 393 = experiment: NCI one-dose screening, renal cancer RXF, 393; type: cell-based, human; settings: 10 μM
MCF7 = experiment: NCI one-dose screening, breast cancer MCF7; type: cell-based, human; settings: 10 μM
MALME-3M = experiment: NCI one-dose screening, melanoma MALME-3M; type: cell-based, human; settings: 10 μM
LOX IMVI = experiment: NCI one-dose screening, melanoma LOX IMVI; type: cell-based, human; settings: 10 μM
HCT-116 = experiment: NCI one-dose screening, colon cancer HCT-116; type: cell-based, human; settings: 10 μM
CAKI-1 = experiment: NCI one-dose screening, renal cancer CAKI-1; type: cell-based, human; settings: 10 μM
UACC-62 = experiment: NCI one-dose screening, melanoma UACC-62; type: cell-based, human; settings: 10 μM
OVCAR-3 = experiment: NCI one-dose screening, ovarian cancer OVCAR-3; type: cell-based, human; settings: 10 μM
KM12 = experiment: NCI one-dose screening, colon cancer KM12; type: cell-based, human; settings: 10 μM
SF-268 = experiment: NCI one-dose screening, CNS cancer SF-268; type: cell-based, human; settings: 10 μM
SK-MEL-2 = experiment: NCI one-dose screening, melanoma SK-MEL-2; type: cell-based, human; settings: 10 μM
DU145 = experiment: NCI one-dose screening, prostate cancer DU145; type: cell-based, human; settings: 10 μM
K562cell line = experiment: NCI one-dose screening, leukemia K562; type: cell-based, human; settings: 10 μM
SR = experiment: NCI one-dose screening, leukemia SR; type: cell-based, human; settings: 10 μM
NCl/ADR-RES = experiment: NCI one-dose screening, breast cancer NCl/ADR-RES; type: cell-based, human; settings: 10 μM; listed under Ovarian cancer
HOP-92 = experiment: NCI one-dose screening, non-small cell lung cancer HOP-92; type: cell-based, human; settings: 10 μM
CCRF-CEM = experiment: NCI screening platform one-dose single concentration screening, leukemia CCRF-CEM; type: cell-based, human; settings: 10 μM
MDA-MB-468 = experiment: NCI one-dose screening, breast cancer MDA-MB-468; type: cell-based, human; settings: 10 μM
[2] = NCI one-dose screening, renal cancer A489; type: cell-based, human; settings: 10 μM
UACC-257 = experiment: NCI one-dose screening, melanoma UACC-257; type: cell-based, human; settings: 10 μM
OVCAR-4 = experiment: NCI one-dose screening, ovarian cancer OVCAR-4; type: cell-based, human; settings: 10 μM
IGROV1 = experiment: NCI one-dose screening, ovarian cancer IGROV1; type: cell-based, human; settings: 10 μM
SNB-75 = experiment: NCI one-dose screening, CNS cancer SNB-75; type: cell-based, human; settings: 10 μM
NCI-H460 = experiment: NCI one-dose screening, non-small cell lung cancer NCI-H460; type: cell-based, human; settings: 10 μM
HS 578-T = experiment: NCI one-dose screening, breast cancer HS 578-T; type: cell-based, human; settings: 10 μM; Breast cancer
NCI-H23 = experiment: NCI one-dose screening, non-small cell lung cancer NCI-H23; type: cell-based, human; settings: 10 μM
SF-295 = experiment: NCI one-dose screening, CNS cancer SF-295; type: cell-based, human; settings: 10 μM
MDA-MB-231/ATCC = experiment: NCI one-dose screening, breast cancer MDA-MB-231/ATCC; type: cell-based, human; settings: 10 μM
A549/ATCC = experiment: NCI one-dose screening, non-small cell lung cancer A549/ATCC; type: cell-based, human; settings: 10 μM
M14 = experiment: NCI one-dose screening, melanoma M14; type: cell-based, human; settings: 10 μM
SK-OV-3 = experiment: NCI one-dose screening, ovarian cancer SK-OV-3; type: cell-based, human; settings: 10 μM
UO-31 = experiment: NCI one-dose screening, renal cancer UO-31; type: cell-based, human; settings: 10 μM
MOLT-4 = experiment: NCI one-dose screening, leukemia MOLT-4; type: cell-based, human; settings: 10 μM
SF-539 = experiment: NCI one-dose screening, CNS cancer SF-539; type: cell-based, human; settings: 10 μM
786-O = experiment: NCI one-dose screening, renal cancer 786-O; type: cell-based, human; settings: 10 μM
PC-3 = experiment: NCI one-dose screening, prostate cancer PC-3; type: cell-based, human; settings: 10 μM
SN12C = experiment: NCI one-dose screening, renal cancer SN12C; type: cell-based, human; settings: 10 μM
NCI-H226 = experiment: NCI one-dose screening, non-small cell lung cancer NCI-H226; type: cell-based, human; settings: 10 μM
HCC-2998 = experiment: NCI one-dose screening, colon cancer HCC-2998; type: cell-based, human; settings: 10 μM
TK-10 = experiment: NCI one-dose screening, renal cancer TK-10; type: cell-based, human; settings: 10 μM
HCT-15 = experiment: NCI one-dose screening, colon cancer HCT-15; type: cell-based, human; settings: 10 μM

## Cc1ccc(Oc2cc3c(c4nsnc24)C(=O)c2ccccc2C3=O)cc1
other
  melting point: 244 to 245 °C

## O=C1c2ccccc2C(=O)c2c1cc(S(=O)(=O)[O-])c1nsnc21.[Na+] [C3, Sodium 6,11-dioxo-6,11-dihydroanthra[2,1-c][1,2,5]thiadiazole-4-sulfonate]
other
  melting point: 293 to 295 °C
[1]
  IC50: 13.3 µM

## CCN(CC)c1cc2c(c3nsnc13)C(=O)c1ccccc1C2=O [C5, 4-(diethylamino)anthra[2,1-c][1,2,5] thiadiazol-6,11-dione]
other
  melting point: 204 to 205 °C
[1]
  IC50: 1.1 µM

## Cc1ccc(C)c(Sc2cc3c(c4nsnc24)C(=O)c2ccccc2C3=O)c1 [C20, 4-(2,5-dimethyl-phenyl-thio)anthra[2,1-c] [1,2,5]thiadiazol-6,11-dione]
other
  melting point: 243 to 244 °C
[1]
  IC50: 7.44 µM

## O=C1c2ccccc2C(=O)c2c1cc(Sc1ccc(Cl)cc1)c1nsnc21 [C22, 4-(4-chloro-phenylthio)anthra[2,1-c] [1,2,5]thiadiazol-6,11-dione]
HL-60, TB
  Growth Percent HL-60(TB): 87.34%
OVCAR-8
  Growth Percent OVCAR-8: 88.60%
HOP-62
  Growth Percent HOP-62: 94.80%
SK-MEL-28
  Growth Percent SK-MEL-28: 130.48%
BT-549
  Growth Percent BT-549: 98.88%
T-47D
  Growth Percent T-47D: 85.04%
NCI-H522
  Growth Percent NCI-H522: 102.62%
PRMI-8226 cell line
  Growth Percent RPMI-8226: 90.15%
NCI-H322M
  Growth Percent NCI-H322M: 100.11%
Human tumor cell lines; delta over all cell lines
  Growth Percent Delta: 51.95%
Human tumor cell lines; mean over all cell lines
  Growth Percent Mean: 98.08%
Human tumor cell lines; range over all cell lines
  Growth Percent Range: 93.67%
SNB-19
  Growth Percent SNB-19: 105.18%
MDA, -MB-435
  Growth Percent MDA-MB-435: 106.67%
U251
  Growth Percent U251: 103.69%
COLO 205
  Growth Percent COLO 205: 121.41%
RXF, 393
  Growth Percent RXF 393: 117.52%
MCF7
  Growth Percent MCF7: 86.11%
MALME-3M
  Growth Percent MALME-3M: 105.10%
LOX IMVI
  Growth Percent LOX IMVI: 83.24%
HCT-116
  Growth Percent HCT-116: 98.25%
CAKI-1
  Growth Percent CAKI-1: 86.97%
UACC-62
  Growth Percent UACC-62: 90.65%
OVCAR-3
  Growth Percent OVCAR-3: 118.64%
KM12
  Growth Percent KM12: 101.50%
SF-268
  Growth Percent SF-268: 104.55%
SK-MEL-2
  Growth Percent SK-MEL-2: 109.49%
DU145
  Growth Percent DU145: 117.15%
K562cell line
  Growth Percent K562: 94.91%
SR
  Growth Percent SR: 110.89%
[1]
  IC50: > 15 µM
NCl/ADR-RES
  Growth Percent NCI/ADR-RES: 102.42%
HOP-92
  Growth Percent HOP-92: 101.98%
CCRF-CEM
  Growth Percent CCRF-CEM: 79.34%
MDA-MB-468
  Growth Percent MDA-MB-468: 46.13%
[2]
  Growth Percent A498: 93.03%
UACC-257
  Growth Percent UACC-257: 95.45%
OVCAR-4
  Growth Percent OVCAR-4: 76.82%
IGROV1
  Growth Percent IGROV1: 84.93%
SNB-75
  Growth Percent SNB-75: 91.73%
NCI-H460
  Growth Percent NCI-H460: 99.52%
HS 578-T
  Growth Percent HS 578T: 103.37%
NCI-H23
  Growth Percent NCI-H23: 104.26%
SF-295
  Growth Percent SF-295: 97.26%
MDA-MB-231/ATCC
  Growth Percent MDA-MB-231/ATCC: 89.05%
A549/ATCC
  Growth Percent A549/ATCC: 103.88%
M14
  Growth Percent M14: 105.44%
SK-OV-3
  Growth Percent SK-OV-3: 108.96%
UO-31
  Growth Percent UO-31: 79.46%
MOLT-4
  Growth Percent MOLT-4: 59.21%
SF-539
  Growth Percent SF-539: 107.00%
786-O
  Growth Percent 786-0: 108.70%
PC-3
  Growth Percent PC-3: 86.94%
SN12C
  Growth Percent SN12C: 86.95%
NCI-H226
  Growth Percent NCI-H226: 94.77% and 93.41%
HCC-2998
  Growth Percent HCC-2998: 106.82%
TK-10
  Growth Percent TK-10: 139.80%
HCT-15
  Growth Percent HCT-15: 98.10%

## CC(C)(C)c1ccc(CSc2cc3c(c4nsnc24)C(=O)c2ccccc2C3=O)cc1 [C57, 4-(4-tert-butylbenzylthio)anthra[2,1-c] [1,2,5]thiadiazol-6,11-dione]
other
  melting point: 256 to 257 °C
[1]
  IC50: 7.47 µM
